For 2 molecules, reinstatement of allodynia and PICK1 oligomerization results are on record in publication PMC13293952 (Cell Reports Medicine, 2026).

The subject of one test is CFA mice. Description: CFA model of inflammatory pain, von Frey paw withdrawal threshold. Type of test: in vivo, mouse. Conditions: 3 mg/kg s.c. on days 11 and 40 after CFA, AAV8-tdTomato controls.
The target in another test is PICK1 (Rattus norvegicus, UniProt Q9EP80). Description: FPLC. Type of test: biochemical. The note with it: FPLC Superdex 200, PICK1 40 µM, molar ratio 1:4 or 1:2, >=20 h at 4°C, A280.
PICK1, sequence (Q9EP80 whole entry): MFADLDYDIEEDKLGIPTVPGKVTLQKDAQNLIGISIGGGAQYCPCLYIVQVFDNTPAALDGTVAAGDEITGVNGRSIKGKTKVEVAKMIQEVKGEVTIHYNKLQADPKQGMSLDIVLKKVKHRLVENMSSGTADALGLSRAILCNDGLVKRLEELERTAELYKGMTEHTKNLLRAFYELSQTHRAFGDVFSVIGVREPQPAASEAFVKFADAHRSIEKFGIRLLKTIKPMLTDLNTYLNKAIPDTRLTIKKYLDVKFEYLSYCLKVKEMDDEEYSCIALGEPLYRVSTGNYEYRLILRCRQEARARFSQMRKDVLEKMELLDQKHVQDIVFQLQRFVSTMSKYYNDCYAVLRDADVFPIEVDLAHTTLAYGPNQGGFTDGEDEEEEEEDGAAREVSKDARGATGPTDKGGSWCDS

Take `O=C1CC[C@@]2(O)[C@H]3Cc4ccc(O)c5c4[C@@]2(CCN3CC2CC2)[C@H]1O5` [NTX, naltrexone]: the reinstatement of allodynia entry in the test with CFA mice is on record as “selectively reinstated allodynia in this group”.
Regarding “biotin-ahx-GEELLEDIRKFNEMRKNMDQLKEKINSVLSIRQGGGGS-HWLKV [SSO10a-C5]”, the PICK1 oligomerization result on PICK1 is “drove PICK1 oligomerization”.
